Earlier results in US20240115670A1, “FIBROBLAST ACTIVATION PROTEIN MODULATION TO ALTER IMMUNE CELL MIGRATION AND TUMOR INFILTRATION” (Georgetown University, priority 2021, published 2024).

Key:
[1] = test system: syngeneic tumors derived from fibrosarcoma, lymphoma, melanoma, mastocytoma, rhabdomyosarcoma and bladder cancer cell lines; details: oral administration; cited from earlier work
serum DPPIV = serum DPPIV (Homo sapiens, UniProt P27487); details: cited from earlier work
colon carcinoma = details: combination with oxaliplatin; cited from earlier work
[2] = test system: advanced non-small cell lung cancer; details: cited from earlier work
[3] = test system: primitive hematopoietic progenitor cells; details: by increasing G-CSF, IL-6, and IL-11 from bone marrow stromal cells; cited from earlier work
[4] = test system: advanced metastatic colorectal cancer; details: cited from earlier work
stage IV melanoma = details: cited from earlier work
myeloma cells = details: coculture with osteoclasts; cited from earlier work
myeloma = details: in vivo; cited from earlier work
gastric cancer = details: via downregulation of FAP; cited from earlier work
CAF = details: via downregulation of FAP; cited from earlier work
[5] = test system: metastatic colorectal cancer; details: cited from earlier work
[6] = test system: advanced or metastatic FAP+ cancer; details: cited from earlier work

Chain of serum DPPIV (P27487 39-766 limits assumed): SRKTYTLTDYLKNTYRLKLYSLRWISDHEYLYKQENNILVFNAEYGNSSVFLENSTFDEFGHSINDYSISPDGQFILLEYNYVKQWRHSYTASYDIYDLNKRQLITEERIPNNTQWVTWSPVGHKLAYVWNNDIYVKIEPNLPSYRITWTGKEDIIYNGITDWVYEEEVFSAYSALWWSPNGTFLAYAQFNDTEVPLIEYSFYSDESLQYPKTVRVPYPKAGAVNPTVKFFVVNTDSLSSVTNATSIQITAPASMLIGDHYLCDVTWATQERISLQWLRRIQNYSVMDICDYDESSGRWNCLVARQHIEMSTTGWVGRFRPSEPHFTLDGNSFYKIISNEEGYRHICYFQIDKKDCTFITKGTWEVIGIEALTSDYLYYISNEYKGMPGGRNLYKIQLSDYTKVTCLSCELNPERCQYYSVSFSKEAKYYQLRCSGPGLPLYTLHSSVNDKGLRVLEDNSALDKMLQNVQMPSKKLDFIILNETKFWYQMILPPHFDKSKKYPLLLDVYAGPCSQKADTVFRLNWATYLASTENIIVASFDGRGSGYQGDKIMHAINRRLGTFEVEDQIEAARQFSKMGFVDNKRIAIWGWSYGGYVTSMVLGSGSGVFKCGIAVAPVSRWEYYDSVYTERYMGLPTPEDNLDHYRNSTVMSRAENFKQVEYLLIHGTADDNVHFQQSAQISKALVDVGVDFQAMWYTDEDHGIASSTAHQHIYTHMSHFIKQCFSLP

Compound: CC(C)[C@H](N)C(=O)N1CCC[C@H]1B(O)O [talabostat, Talabostat]
- growth of syngeneic tumors [1]: slowed growth
- serum DPPIV inhibition (serum DPPIV; dose of 600 ug/m2, at 24 hours): 85%
- dose-limiting toxicities (serum DPPIV; phase I, pediatric solid tumors): No dose-limiting toxicities were observed
- efficacy of oxaliplatin (colon carcinoma): enhanced
- patients with adverse events resulting in death ([2]; none considered definitely or probably related to talabostat): eight
- durable complete responses ([2]; with docetaxel): two
- overall response rate ([2]; with docetaxel): 9.1%
- partial responses ([2]; with docetaxel): three
- stable disease rate ([2]; with docetaxel): 54%
- growth of primitive hematopoietic progenitor cells [3]: promoted growth
- Grade 5 adverse events ([4]; single agent trial, acute renal failure due to cytokine storm): one
- clinical responses ([4]; single agent): no complete or partial responses
- patients discontinuing talabostat due to side effects (stage IV melanoma; in vivo): 18%
- patients with grade 3 or 4 adverse events (stage IV melanoma; in vivo): 56%
- patients with partial response (stage IV melanoma; with cisplatin, second-line): 8.1%
- patients with stable disease (stage IV melanoma; with cisplatin, second-line): 62.5%
- myeloma cell proliferation (myeloma cells): concentration-dependent decreased
- osteoclast activity, bone resorption and tumor burden (myeloma): reduced

Compound: polyphyllin
- tumor growth in vivo (gastric cancer): decreased
- CAF proliferation in vitro (CAF): decreased

Compound: sibrotuzumab: humanized monoclonal anti-FAP antibody
- tolerability ([5]; in vivo): well tolerated
- clinical activity ([5]; phase II, trial suspended): lack of clinical activity
- dose limiting toxicity ([6]; in vivo): one
- clinical responses ([6]; phase I): no clinical responses
- patients with stable disease ([6]; phase I): 2/26
